{"source": "patent US20210161855A1", "about": "“5-LIPOXYGENASE ANTAGONISTS” (INSTITUTO DE MEDICINA MOLECULAR JOÃO LOBO ANTUNES, priority 2017, published 2021)", "key": {"[1]": {"biological_target": "T1, 5-LO (Homo sapiens, UniProt P09917)", "T1 sequence (P09917 1-674)": "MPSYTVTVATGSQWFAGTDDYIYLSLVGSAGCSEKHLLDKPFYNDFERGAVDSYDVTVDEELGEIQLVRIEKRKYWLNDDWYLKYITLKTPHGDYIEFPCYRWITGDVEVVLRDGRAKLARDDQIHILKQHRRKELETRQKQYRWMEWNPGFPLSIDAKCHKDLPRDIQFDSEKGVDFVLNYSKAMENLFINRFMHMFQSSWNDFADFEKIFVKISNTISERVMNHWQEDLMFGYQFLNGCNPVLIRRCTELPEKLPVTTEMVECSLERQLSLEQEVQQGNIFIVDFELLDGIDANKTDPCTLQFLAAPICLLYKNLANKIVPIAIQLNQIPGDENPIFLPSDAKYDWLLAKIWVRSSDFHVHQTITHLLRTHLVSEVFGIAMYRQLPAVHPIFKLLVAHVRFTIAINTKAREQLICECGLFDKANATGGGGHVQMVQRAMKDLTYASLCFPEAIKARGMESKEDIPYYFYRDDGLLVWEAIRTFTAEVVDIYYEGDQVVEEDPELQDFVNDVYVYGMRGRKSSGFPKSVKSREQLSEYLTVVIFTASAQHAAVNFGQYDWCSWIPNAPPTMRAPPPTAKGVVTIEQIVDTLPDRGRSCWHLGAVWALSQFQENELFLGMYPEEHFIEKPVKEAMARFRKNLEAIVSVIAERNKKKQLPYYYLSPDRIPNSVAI", "assay": "Cell-free activity assay of human recombinant 5-LO", "assay_type": "biochemical", "set-up": "made in house; host or cells: E. coli (BL21), plasmid pT3-5-LO", "procedure": "E. coli(BL21) was transformed with pT3-5-LO plasmid, and recombinant 5-LO protein was expressed at 30° C. as described.^34 Cells were lysed in 50 mM triethanolamine/HCl pH 8.0, 5 mM EDTA, 1 mM phenylmethanesulphonyl fluoride, soybean trypsin inhibitor (60 μg/mL), and lysozyme (1 mg/mL), homogenized by sonication (3×15 s), and centrifuged at 40,000×g for 20 min at 4° C. The 40,000×g supernatant (S40) was applied to an ATP-agarose column to partially purify 5-LO as described.^70 Aliquots of semi-purified 5-LO (0.5 μg) were diluted with 1 mL ice-cold PBS containing 1 mM EDTA. Samples were pre-incubated with the test compound or vehicle (0.1% DMSO) with or without Triton X-100 and/or 1 mM DTT, as indicated. After 10 min at 4° C., samples were pre-warmed for 30 s at 37° C., and 2 mM CaCl2 plus the indicated concentrations of arachidonic acid (AA) were added to start the formation of 5-LO products. After 10 min, the reaction was stopped by addition of one volume of ice-cold methanol, and the formed 5-LO products were analyzed by RP-HPLC as described.^71 5-LO products include the all-trans isomers of LTB4 (tr-LTB4 isomers) as well as 5(S)-hydroperoxy-6-trans-8,11,14-cis-eicosatetraenoic acid (5-HPETE) and its corresponding alcohol 5(S)-hydroxy-6-trans-8,11,14-cis-eicosatetraenoic acid (5-HETE). For phosphatidylcholine competition assays (3 or 30 μg/ml PC) samples were pre-incubated on ice with β-lapachone with or without 1 mM DDT or vehicle (0.1% DMSO) for 10 minutes. After addition of 2 mM CaCl2) and 20 μM AA the incubation was continued for 10 minutes at 37° C. and after that stopped with methanol.\n(§1) Data are expressed as mean±S.E.M. IC50 values were calculated from averaged measurements at 6 different concentrations of the compound by nonlinear regression using GraphPad Prism software (San Diego, Calif.) one site binding competition. Statistical evaluation of the data was performed by one-way ANOVA followed by a Tukey-Kramer post-hoc test for multiple comparisons respectively. A p value<0.05 (*) was considered significant."}, "[2]": {"system": "HL-60 cells", "assay": "HL-60 cell viability with and without DMSO differentiation (Alamar Blue)", "assay_type": "cell-based", "conditions": "Homo sapiens, 48 hours, n=1", "procedure": "Cells were fixed with […] BD fix buffer while vortexing. […] After the required incubation time, cells were washed and incubated for another hour with goat anti-rabbit Alexa fluor 488 antibody. Cells are then washed and resuspended in PBS and acquired by LSRFortessa™ flow cytometer (BD Biosciences, USA) with a 488 nm laser, a 505 nm long-pass filter and a 530/30 nm band-pass filter (for FITC detection). Data was analyzed using the FlowJo software. […] Cells were treated with varying concentration of β-lapachone for a time period of 48 hours. Cell death was analyzed using standard Alamar Blue assay. Data is represented after being normalized to the vehicle control."}, "[3]": {"biological_target": "T1, 5-LO", "assay": "5-LO activity in neutrophil homogenates", "assay_type": "biochemical", "set-up": "endogenous in cells; host or cells: neutrophils isolated from peripheral blood of healthy adult volunteers; intact or sonicated homogenates", "conditions": "n=3", "procedure": "Peripheral blood (University Hospital Jena, Germany) was withdrawn from healthy adult volunteers with consent that had not taken any anti-inflammatory drugs during the last 10 days, by venipuncture in heparinized tubes (16 IE heparin/mL blood). The blood was centrifuged at 4000 g for 20 min at 20° C. for preparation of leukocyte concentrates. Leukocyte concentrates were then subjected to dextran sedimentation and centrifugation on lymphocyte separation medium (LSM 1077, PAA, Colbe, Germany). Contaminating erythrocytes of pelleted neutrophils were removed by hypotonic Iysis. Neutrophils were then washed twice in ice-cold PBS and finally resuspended in PBS pH 7.4 containing 1 mg/mL glucose or in PBS pH 7.4 containing 1 mg/mL glucose plus 1 mM CaCl2 (PGC buffer) (purity>96-97%).\nFor analysis of 5-LO product formation in corresponding homogenates, neutrophils were resuspended in PBS containing 1 mM EDTA for 5 min at 4° C. and sonicated (4×10 s, 4° C.). Homogenates, corresponding to 5×10^6 cells/mL, were incubated with the test compounds or vehicle (0.1% DMSO) with or without 1 mM DTT for 15 min at 4° C., pre-warmed for 30 s at 37° C., and the reaction was started by the addition of 2 mM CaCl2 plus the indicated concentrations of AA (routinely 20 μM). The reaction was stopped after 10 min and the samples were analyzed as described for intact cells above.\nas §1"}}, "note": "Where two headings read alike, the source gives them in different places."}
{"smiles": "CC1(C)CCC2=C(O1)c1ccccc1C(=O)C2=O", "note": "[Compound 1, 3,4-dihydro-2,2-dimethyl-2H-naphtho[1,2-b]pyran-5,6-dione]", "values": [{"measurement": "IC50", "setting": "[1]; 3 μg/mL phosphatidylcholine, n=3, read-out: IC50 (3 μg/mL, PC), competition assay with phosphatidylcholine", "result": 100, "unit": "nM"}, {"measurement": "IC50", "setting": "[1]; 30 μg/mL phosphatidylcholine, n=3, read-out: IC50 (30 μg/mL, PC), competition assay with phosphatidylcholine", "result": 1000, "unit": "nM"}, {"measurement": "IC50", "setting": "[1]; 1 mM DTT, 0.01% Triton X100, n=3, read-out: IC50 (with Triton X100), inhibition of 5-LO", "result": 90, "unit": "nM"}, {"measurement": "IC50", "setting": "[1]; 1 mM DTT, no Triton X100, n=3, read-out: IC50 (without Triton X100), inhibition of 5-LO", "result": 120, "unit": "nM"}, {"measurement": "IC50", "setting": "[1]; 1 mM dithiothreitol (DTT), n=3, read-out: IC50 (with DTT), inhibition of 5-LO in a cell-free assay", "result": 240, "unit": "nM"}, {"measurement": "IC50", "setting": "[1]; absence of DTT, n=3, read-out: IC50 (without DTT), inhibition of 5-LO in a cell-free assay", "result": "> 30000", "unit": "nM"}, {"measurement": "Effect of arachidonic acid concentration on potency", "setting": "[1]; arachidonic acid 2.5-40 μM", "result": "only to minor alterations of the potency"}, {"measurement": "5-LO modulation in absence of dithiothreitol", "setting": "[1]; cell-free, no DTT, up to 30 μM", "result": "negligible 5-LO modulation"}, {"measurement": "5-LO activity after wash-out", "setting": "[1]; wash-out of compound", "result": "could be reinstated upon wash-out"}, {"measurement": "IC50", "setting": "[2]; DMSO-stimulated HL-60 cells overexpressing 5-LO, read-out: IC50 (differentiated), HL-60", "result": 180, "unit": "nM"}, {"measurement": "IC50", "setting": "[2]; control HL-60 cells, read-out: IC50 (control), HL-60", "result": 390, "unit": "nM"}, {"measurement": "IC50", "setting": "[3]; 1 mM DTT, read-out: IC50 (with DTT), 5-LO activity in neutrophil homogenates", "result": 90, "unit": "nM"}, {"measurement": "IC50", "setting": "[3]; absence of DTT, read-out: IC50 (without DTT), 5-LO activity in neutrophil homogenates", "result": 5200, "unit": "nM"}]}
